According to patent US20050208037A1, “Thioredoxin increases redox-cycling of anticancer agents thereby sensitizes cancer cells to apoptosis” (Board of Regents, The University of Texas System, priority 2003, published 2005):
Where a name gives a salt, the structure may show the parent alone.

Assays:
[1] = tested on: Trx9 cells (MCF-7 clones expressing thioredoxin); test: In situ detection of ROS by DCF-DA fluorescence; assay type: cell-based, human; conditions: Trx9 compared to vector cells
Protocol: In situ detection of superoxide by fluorescent probe DiCarboxyFluorescein-DiAcetate (DCF-DA). Cells were grown in chambered glass slides (Nunc) to a final density of 25,000 cells per well.

[2] = cited from earlier work
[3] = biological target: T1, E. coli thioredoxin reductase-thioredoxin system (Escherichia coli, UniProt P0A9P4); test: Superoxide detection by cytochrome c reduction assay with thioredoxin system; assay type: biochemical
T1 construct: purchased American Diagnostica Inc (thioredoxin reductase); Promega Inc (thioredoxin)
T1 sequence (P0A9P4 2-321): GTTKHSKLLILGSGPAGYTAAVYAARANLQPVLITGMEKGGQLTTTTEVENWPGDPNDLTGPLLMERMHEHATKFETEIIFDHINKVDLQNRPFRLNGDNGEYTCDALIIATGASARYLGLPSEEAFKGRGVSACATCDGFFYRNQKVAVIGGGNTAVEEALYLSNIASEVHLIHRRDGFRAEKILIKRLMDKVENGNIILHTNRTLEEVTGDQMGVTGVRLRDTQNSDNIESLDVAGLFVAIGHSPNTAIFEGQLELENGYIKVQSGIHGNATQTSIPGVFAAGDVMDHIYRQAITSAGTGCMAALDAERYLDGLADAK
Protocol: Superoxide detection by cytochrome c reduction assay. Superoxide (O2—) generated in the process of redox-cycling was detected by SOD inhibitable rate of ferricytochrome c reduction (Das et al., 2000). The reaction mixture contained 0.05 M potassium phosphate buffer (pH 7.78), 1 mM EDTA, 10 μM cytochrome c and 200 μM NADPH. […] The rate of […] of cytochrome c was measured at 550 nm for 0-15 minutes using Shimadzu UV-1601PC in kinetic mode. Reaction blank contained potassium phosphate buffer, cytochrome c and NADPH with or without SOD, and controls included 0.35-0.7 μg TR and /or Trx in buffer. All reactions were performed in triplicate.

[4] = biological target: T2, E. coli thioredoxin (Escherichia coli, UniProt P0AA25); test: Thioredoxin redox state by carboxymethylation and western analysis; assay type: biochemical; conditions: TR and doxorubicin
T2 construct: purchased Promega Inc (thioredoxin); American Diagnostica Inc (thioredoxin reductase)
T2 sequence (P0AA25 2-109): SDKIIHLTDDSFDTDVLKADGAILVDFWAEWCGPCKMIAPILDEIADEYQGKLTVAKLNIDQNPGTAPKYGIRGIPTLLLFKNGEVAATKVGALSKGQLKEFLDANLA
Protocol: Carboxymethylation of thioredoxin. In order to analyze the possible role of thioredoxin in the redox-cycling of anthracyclines the redox status of thioredoxin was determined by carboxymethylation at the end of assay. Carboxymethylation was done as described previously (Das et al., 1997). Equal volume of carboxymethylation buffer (0.1 M Tris; pH 8.8, 12 mg/ml iodoacetic acid, 3 mM EDTA, 7 M guanidine hydrochloride, and 0.5% Triton X-100, equilibrated with nitrogen for 1 h) was added and incubated at 37° C. in the dark for 45 min. After incubation the excess reagent was removed using Sephadex G-25 spin column, and the elute was used for western blot detection of thioredoxin.
Western analysis of thioredoxin redox state. […] The protein was transferred to PVDF membrane using a miniprotein transblot apparatus (Bio-Rad). The PVDF membrane was washed and incubated with mouse anti-E. coli Trx IgG (MBL, Nagoya, Japan). After washing, the blot was incubated with anti Mouse IgG- horseradish peroxidase conjugate for 1 h at room temperature. Binding of secondary antibody was detected using an enhanced chemiluminescence (ECL Plus) detection system (Amersham Pharmacia Biotech, Piscataway, N.J.). Western blot was quantified using densitometric analysis software (NIH Image 1.61).

[5] = tested on: Trx9 cells (MCF-7 clones expressing thioredoxin); test: Superoxide production in cell lysate by SOD-inhibitable reduction of ferricytochrome c; assay type: biochemical, human; conditions: Trx9 compared to vector-transfected cells; 10 μM drug
Protocol: Determination of superoxide production by reduction of ferricytochrome c. Superoxide production was measured as superoxide dismutase (SOD) inhibitable reduction of ferricytochrome c (Azzi et al. 1975). Cells were sonicated in potassium phosphate buffer (0.05M, pH 7.8 plus 1 mM EDTA), centrifuged and the supernatant was used for the assay. To determine the superoxide generation in the cell lysate, the supernatant was incubated with 10 μM drug and 10 μM cytochrome c, with or without 1U SOD to determine SOD inhibitable rate. The specificity of thioredoxin mediated superoxide generation in the supernatant was detected by pre-incubation of cell lysates with anti-human thioredoxin antibody (American Diagnostica, Greenwich, Conn.) for 15 min. All reactions were performed in triplicate. The reduction of ferricytochrome c was measured both in kinetic and end point mode with path check on for 1 hr duration at a wavelength of 550 nm using a Spectramax 190 plate reader (Molecular Devices). Total protein was quantified using Bradford protein assay (Biorad) and the superoxide generation was determined per milligram of protein in the extracts.

[6] = biological target: T3, cytochrome P450 reductase (Oryctolagus cuniculus, UniProt P00389); test: Cytochrome P450 reductase mediated SOD-inhibitable superoxide generation; assay type: biochemical, rabbit; conditions: 10 μM doxorubicin, Trx-SH alone as electron donor, absence of NADPH
T3 construct: purchased Sigma Chemicals (St. Louis, Mo.); host or cells: rabbit liver
T3 sequence (P00389 1-679): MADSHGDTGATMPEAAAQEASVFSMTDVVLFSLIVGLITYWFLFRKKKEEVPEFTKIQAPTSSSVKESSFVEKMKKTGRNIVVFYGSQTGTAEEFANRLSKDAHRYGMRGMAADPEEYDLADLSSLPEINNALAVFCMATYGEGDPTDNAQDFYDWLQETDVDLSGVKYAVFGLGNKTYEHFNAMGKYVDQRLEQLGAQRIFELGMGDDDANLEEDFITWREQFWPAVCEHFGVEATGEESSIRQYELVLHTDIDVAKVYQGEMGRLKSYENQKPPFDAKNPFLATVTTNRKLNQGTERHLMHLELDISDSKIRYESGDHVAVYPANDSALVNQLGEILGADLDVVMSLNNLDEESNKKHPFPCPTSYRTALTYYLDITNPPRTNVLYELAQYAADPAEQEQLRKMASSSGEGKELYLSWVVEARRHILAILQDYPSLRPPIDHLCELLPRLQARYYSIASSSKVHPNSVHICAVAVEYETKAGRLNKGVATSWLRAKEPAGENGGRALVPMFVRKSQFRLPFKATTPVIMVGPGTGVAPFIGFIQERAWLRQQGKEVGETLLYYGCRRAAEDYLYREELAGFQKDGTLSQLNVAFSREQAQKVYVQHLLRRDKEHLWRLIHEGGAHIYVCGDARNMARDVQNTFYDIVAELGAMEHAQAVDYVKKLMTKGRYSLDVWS
Protocol: Superoxide detection by cytochrome c reduction assay. Superoxide (O2—) generated in the process of redox-cycling was detected by SOD inhibitable rate of ferricytochrome c reduction (Das et al., 2000). […] Reaction blank contained potassium phosphate buffer, cytochrome c and NADPH with or without SOD, and controls included 0.35-0.7 μg TR and /or Trx in buffer. All reactions were performed in triplicate.

[7] = tested on: p53 in A549 cells; test: EMSA of p53 DNA binding; assay type: cell-based, human; conditions: E. coli Trx 32 μM 16 h followed by daunomycin 1 μM 4 h
Protocol: Nuclear Extract preparation. Nuclear extract was prepared as described previously (Das, 2001). […] The extracts were then centrifuged at 14,000 rpm for 25 min and the supernatant was saved as nuclear extract in −70° C. for further experiments. Protein was quantified using Bradford protein assay (Biorad).
Electrophoretic Mobility shift assay (EMSA). For the EMSA the p53 consensus oligonucleotide was obtained from Genosys 5′-[…]-3′ (SEQ ID NO:9) and end labeled using T4 Poly nucleotide kinase (New England Biolabs, Beverly, Mass.) and [γ-^32P] ATP (Perkin Elmer, Boston, Mass.) in 10× kinase buffer supplied with the enzyme. […] The nuclear protein was separated by electrophoresis using 4% native polyacrylamide gel and 0.25× of TBE (Tris-Borate-EDTA) as running buffer. The gels were dried and exposed to Kodax Biomax X-ray film overnight.

[8] = biological target: T4, human thioredoxin reductase (Homo sapiens, UniProt Q16881); conditions: cited from earlier work
T4 sequence (Q16881 151-649 limits assumed): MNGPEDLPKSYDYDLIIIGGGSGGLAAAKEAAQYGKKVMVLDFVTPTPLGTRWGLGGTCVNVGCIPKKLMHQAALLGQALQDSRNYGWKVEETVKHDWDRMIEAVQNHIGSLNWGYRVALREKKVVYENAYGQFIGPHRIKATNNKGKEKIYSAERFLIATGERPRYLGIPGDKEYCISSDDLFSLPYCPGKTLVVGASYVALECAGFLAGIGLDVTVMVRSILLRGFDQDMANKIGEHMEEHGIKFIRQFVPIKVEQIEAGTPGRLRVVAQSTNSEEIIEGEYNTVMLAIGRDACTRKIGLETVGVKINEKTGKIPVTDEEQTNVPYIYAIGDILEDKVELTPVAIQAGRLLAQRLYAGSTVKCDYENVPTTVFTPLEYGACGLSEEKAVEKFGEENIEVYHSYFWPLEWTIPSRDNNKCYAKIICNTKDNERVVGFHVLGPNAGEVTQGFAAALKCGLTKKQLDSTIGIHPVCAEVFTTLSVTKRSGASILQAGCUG

[9] = tested on: A549 cells; test: ROS detection by DCF-DA fluorescence; assay type: cell-based, human
Protocol: In situ detection of superoxide by fluorescent probe DiCarboxyFluorescein-DiAcetate (DCF-DA). […] Cells were pre-incubated with 20 μM DCF-DA (Sigma, St. Louis, Mo.) in 20 mM Hepes in Phosphate Buffered Saline (PBS) containing bovine serum albumin (BSA, 5 mg/ml) at 37° C. for 30 min followed by washing with PBS buffer, and the drug was added and observed for 10-15 min in a Nikon laser confocal microscope using laser beam wavelength 488 nm analyzed by Ultraview software (Perkin-Elmer).

[10] = tested on: A549 cells; conditions: E. coli thioredoxin 32 μM 16 hr followed by daunomycin 1 μM 4 hr
Source text: TUNEL assay. Apoptotic cells were detected using In Situ Cell Death detection, POD kit (Roche Molecular Biochemicals, Indianapolis, Ind.). Apoptotic DNA strand breaks were identified by labeling 3′-OH termini with fluorescein-dUTP using Terminal deoxy Transferase as per manufacturer's protocol. For this assay cells were allowed to adhere overnight in chambered glass slides (Nunc) to a final density of 25,000 cells per well. Followed by treatment with the appropriate concentration of drugs the media was removed and washed twice with PBS containing 1% BSA and the cells fixed in 4% paraformaldehyde for 30 min and washed with PBS containing 1% BSA. The cells were then permeabilized with 0.1% Triton X-100 in 0.1% sodium citrate for 2 min on ice and washed twice with PBS containing 1% BSA. The labeling reaction was performed using FITC labeled dUTP along with other nucleotides by terminal deoxynucleotidyl transferase for 60 mins in dark at 37° C. in humidified chamber. The cells were washed with PBS-1% BSA, mounted onto a slide, and the incorporated fluorescein-dUTP was analyzed using Nikon laser confocal microscope.

## COc1cccc2c1C(=O)c1c(O)c3c(c(O)c1C2=O)C[C@@](O)(C(=O)CO)C[C@@H]3O[C@H]1C[C@H](N)[C@H](O)[C@H](C)O1 [doxorubicin, 5,12-Naphthacenedione, (8 s-cis)-10-[(3-amino-2,3,6-trideoxy-a-L-lyxo-hexopyranosyl)oxy]-7,8,9,10-tetrahydro-6,8,11-trihydroxy-8-(hydroxyacetyl)-1-methoxy-hydrochloride]
[1]
  DCF-DA fluorescence (oxidation of DCF-DA): enhanced fluorescence
[2]; in vivo
  excreted into the urine: a few percent
[2]; intravenous
  elimination half-life: about 30 hr
[2]; oral
  absorption: poorly absorbed
[3]; drug 10 μM with thioredoxin reductase alone
  levels of O2— generated: significantly higher levels of O2—
[3]; drug alone, 10 μM
  SOD inhibitable rate of ferricytochrome c reduction: did not show significant level
[3]; thioredoxin reductase alone or thioredoxin reductase-thioredoxin system, 10 μM drug
  rate of superoxide generation as compared to daunomycin: two fold increase
[4]; 28.7% without doxorubicin
  level of Trx-S2 (oxidized thioredoxin): 53%
[4]; Trx, 71.3% in thioredoxin-thioredoxin reductase system only
  level of reduced thioredoxin: 47%
[5]
  O2— production: significantly higher level of O2—
[6]
  SOD inhibitable O2— generation: generated O2—

## E. coli thioredoxin: E. coli thioredoxin obtained from Promega; sequence of SEQ ID NO:4
[7]
  p53 DNA binding: increased p53 DNA binding
[8]
  Km as a substrate for human thioredoxin reductase: 35 µM
[9]; E. coli thioredoxin only (32 μM, 16 hr)
  ROS generation (DCF-DA): No ROS were detected
[9]; pretreated with E. coli thioredoxin (32 μM, 16 hr) followed by 1 μM daunomycin
  ROS generation (DCF-DA): significantly higher level of ROS generation
[3]; addition of 3.2 μM Trx to thioredoxin reductase with daunomycin or doxorubicin
  levels of O2— generated: further enhanced the levels of O2—
[3]; thioredoxin from 1.6 to 6.4 μM, 0.35 μg thioredoxin reductase, 10 μM doxorubicin
  rate of O2— generation with doxorubicin: proportional increase in the rate of O2— generation
[10]
  TUNEL positive nuclei: increase in TUNEL positive nuclei
